Data on one compound can be found in patent US20220081481A1, “USE OF AGENTS CAPABLE OF INDUCING LC3-ASSOCIATED PHAGOCYTOSIS FOR TREATING SUSTAINED INFLAMMATION IN PATIENTS SUFFERING FROM CHRONIC LIVER DISEASE” (INSERM (INSTITUT NATIONAL DE LA SANTÉ ET DE LA RECHERCHE …, priority 2019, published 2022).

The test has as its system PBMC from cirrhotic patients and healthy donors. Briefly: Western blot of LC3-II lipidation in PBMC. To be noted: 30 μM chloroquine diphosphate, data not shown. The class given is cell-based, human. The method, then: Peripheral blood mononuclear cells (PBMC) and monocyte isolation. PBMC were prepared from the blood of cirrhotic patients and healthy donors, using Ficoll density gradient centrifugation (Ficoll Paque™-plus, GE Healthcare, 17-1440-02), as previously described^43.
Cell treatment. Human monocytes, THP1-XBlue™-CD14 (Invivogen, Catalog #thpx-cd14sp) and THP1-FcγRIIA+−CD14+(kindly provided by Novimmune) monocytes were used. When indicated cells were exposed to either 30 μM chloroquine diphosphate (Sigma, C6628), 10 mM 3-Methyladenine (3-MA, Sigma, M9281-100 mg), 10 mM Diphenyleneiodonium chloride (DPI, Sigma, D2926-10 mg), or 10 mg/ml IVIg (Privigen, 100 mg/ml) for 4 hrs at 37° C., as indicated. We also used commercially synthetized Tat-conjugated peptides (30 μM, GeneCust, Dudelange): i) the Tat-p22phox N8 peptide corresponding to eight N-terminal amino acids (3-10) of p22phox that blocks the Rubicon-p22phox interaction^19; ii) its control mutant Tat-N8W9A peptide, in which one tryptophan residue is replaced by Alanine^19). In some experiments, cells were exposed to the preformed complex (10 μg/ml of mouse anti-hFcγRII mAb (clone AT-10, Santa Cruz, sc-13527) F(ab′)2 fragments+20 μg/ml goat anti-mouse anti-kappa F(ab′)2 fragments (Southern Biotech, 1052-01) or to 100 μg/ml of anti-hFcγRIIA mAb F(ab′)2 fragments (clone IV.3), purified as we previously described^26. […]
Background: A western blot detects proteins with antibodies after separation by electrophoresis.

As for `CCN(CC)CCCC(C)Nc1ccnc2cc(Cl)ccc12` (centres unmarked) [chloroquine, chloroquine diphosphate], the LC3-II lipidation result runs as follows: (PBMC from cirrhotic patients) “further enhanced”; (cells from healthy donors) “affected more marginally”.
